Several values for one entry are separate records, joined by “and”; a condition that tells them apart may be missing. Equal entries are not always repeated. Inconclusive results and toxic doses are left out. The calls were made as follows: active = survival T/C of 150% or more; inactive = T/C below 125% in these data.
Tested on: P388 leukemia ip, CD2F1 mice, survival T/C
Assay: NCI In Vivo Anticancer Drug Screen. Data for tumor model P388 Leukemia (intraperitoneal) in CD2F1 (CDF1) mice
Conditions: endpoint: median survival time, higher = longer survival
Outline: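 Mice carrying the transplanted tumor received test compound or vehicle. Survival was recorded in each group, and the value is the treated-group measurement divided by that of the vehicle-treated control group.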

[1] = dose: 60.0 mg/kg/injection, schedule: Q01DX005 (ip), vehicle: saline with Tween-80
[2] = dose: 120.0 mg/kg/injection, schedule: Q01DX005 (ip), vehicle: saline with Tween-80
[3] = dose: 240.0 mg/kg/injection, schedule: Q01DX005 (ip), vehicle: saline with Tween-80
[4] = dose: 25.0 mg/kg/injection, schedule: Q01DX005 (ip), vehicle: saline with Tween-80
[5] = dose: 50.0 mg/kg/injection, schedule: Q01DX005 (ip), vehicle: saline with Tween-80
[6] = dose: 100.0 mg/kg/injection, schedule: Q01DX005 (ip), vehicle: saline with Tween-80
[7] = dose: 200.0 mg/kg/injection, schedule: Q01DX005 (ip), vehicle: saline with Tween-80
[8] = dose: 25.0 mg/kg/injection, schedule: Q01DX005 (ip), vehicle: saline
[9] = dose: 50.0 mg/kg/injection, schedule: Q01DX005 (ip), vehicle: saline
[10] = dose: 100.0 mg/kg/injection, schedule: Q01DX005 (ip), vehicle: saline
[11] = dose: 50.0 mg/kg/injection, schedule: Q01DX009 (ip), vehicle: Klucel (hydroxypropylcellulose) (HPC)
[12] = dose: 100.0 mg/kg/injection, schedule: Q01DX009 (ip), vehicle: Klucel (hydroxypropylcellulose) (HPC)
[13] = dose: 200.0 mg/kg/injection, schedule: Q01DX009 (ip), vehicle: Klucel (hydroxypropylcellulose) (HPC)
[14] = dose: 30.0 mg/kg/injection, schedule: Q01DX005 (ip), vehicle: saline with Tween-80
[15] = dose: 50.0 mg/kg/injection, schedule: Q01DX005 (ip), vehicle: Klucel (hydroxypropylcellulose) (HPC)
[16] = dose: 100.0 mg/kg/injection, schedule: Q01DX005 (ip), vehicle: Klucel (hydroxypropylcellulose) (HPC)

Measured: T/C

CN1C(=O)N(C)C2(C(=O)N(C)C(=S)N2C)N(C)C1=O
inactive: [1] 95 % of control | [2] 103 % of control | [3] 102 % of control

Cc1cc2nnc(-c3ccc(C#N)cc3)n2c2nnnn12
inactive: [4] 100 % of control | [5] 100 % of control | [6] 104 % of control | [7] 104 % of control

CN1C(=O)c2ccccc2CC12c1ccccc1C(=O)N2C (centres undefined)
inactive: dose: 12.5 mg/kg/injection, schedule: Q01DX005 (ip), vehicle: saline with Tween-80 94 % of control | [4] 90 % of control | [5] 108 % of control

CC[N+](C)(CC)C1C(S(=O)(=O)c2ccccc2)CC1(C)C (centres undefined)
inactive: [8] 108 % of control | [9] 98 % of control | [10] 99 % of control

Cn1c(=O)n(CCn2c(=O)n(C)c3ccccc32)c2ccccc21
inactive: dose: 100.0 mg/kg/injection, schedule: Q01DX001 (ip), vehicle: Klucel (hydroxypropylcellulose) (HPC) 91 % of control | dose: 200.0 mg/kg/injection, schedule: Q01DX001 (ip), vehicle: Klucel (hydroxypropylcellulose) (HPC) 92 % of control | dose: 400.0 mg/kg/injection, schedule: Q01DX001 (ip), vehicle: Klucel (hydroxypropylcellulose) (HPC) 91 % of control

O=[N+]([O-])c1ccc2c(c1)C1CN(Cc3ccccc31)C2 (centres undefined)
inactive: dose: 100.0 mg/kg/injection, schedule: Q01DX001 (ip), vehicle: saline with Tween-80 90 % of control | dose: 200.0 mg/kg/injection, schedule: Q01DX001 (ip), vehicle: saline with Tween-80 89 % of control | dose: 400.0 mg/kg/injection, schedule: Q01DX001 (ip), vehicle: saline with Tween-80 97 % of control

CCCCC(=O)Nc1ncc([N+](=O)[O-])s1
inactive: dose: 25.0 mg/kg/injection, schedule: Q01DX009 (ip), vehicle: Klucel (hydroxypropylcellulose) (HPC) 110 % of control | [11] 102 % of control and 104 % of control and 116 % of control | [12] 101 % of control and 103 % of control and 113 % of control | [13] 105 % of control and 111 % of control and 123 % of control

COC(=O)[C@@]12OC[C@]34[C@H]([C@@H](O)[C@@H]1O)[C@@]1(C)CC(=O)C(O)=C(C)[C@@H]1C[C@H]3OC(=O)[C@H](OC(=O)C(N)Cc1ccccc1)[C@@H]24 (some centres undefined)
inactive: dose: 0.5 mg/kg/injection, schedule: Q01DX005 (ip), vehicle: Klucel (hydroxypropylcellulose) (HPC) 107 % of control | dose: 1.0 mg/kg/injection, schedule: Q01DX005 (ip), vehicle: Klucel (hydroxypropylcellulose) (HPC) 103 % of control and 107 % of control | dose: 2.0 mg/kg/injection, schedule: Q01DX005 (ip), vehicle: Klucel (hydroxypropylcellulose) (HPC) 108 % of control and 119 % of control | dose: 4.0 mg/kg/injection, schedule: Q01DX005 (ip), vehicle: Klucel (hydroxypropylcellulose) (HPC) 112 % of control | dose: 8.0 mg/kg/injection, schedule: Q01DX005 (ip), vehicle: Klucel (hydroxypropylcellulose) (HPC) 110 % of control | dose: 125.0 micrograms/kg/injection, schedule: Q01DX005 (ip), vehicle: Klucel (hydroxypropylcellulose) (HPC) 96 % of control | dose: 250.0 micrograms/kg/injection, schedule: Q01DX005 (ip), vehicle: Klucel (hydroxypropylcellulose) (HPC) 107 % of control | dose: 500.0 micrograms/kg/injection, schedule: Q01DX005 (ip), vehicle: Klucel (hydroxypropylcellulose) (HPC) 98 % of control | dose: 1000.0 micrograms/kg/injection, schedule: Q01DX005 (ip), vehicle: Klucel (hydroxypropylcellulose) (HPC) 107 % of control

Cc1cc[n+](C2=C(Nc3cccc(C(F)(F)F)c3)C(=O)c3ccccc3C2=O)cc1
inactive: dose: 3.75 mg/kg/injection, schedule: Q01DX005 (ip), vehicle: saline with Tween-80 105 % of control | dose: 7.5 mg/kg/injection, schedule: Q01DX005 (ip), vehicle: saline with Tween-80 119 % of control | dose: 15.0 mg/kg/injection, schedule: Q01DX005 (ip), vehicle: saline with Tween-80 105 % of control

Cc1ccc(=O)c2ccsc2c1
inactive: dose: 100.0 mg/kg/injection, schedule: Q04DX003 (ip), vehicle: Klucel (hydroxypropylcellulose) (HPC) 105 % of control | dose: 200.0 mg/kg/injection, schedule: Q04DX003 (ip), vehicle: Klucel (hydroxypropylcellulose) (HPC) 94 % of control

CCOC(=O)Nc1nc2ccccc2n1CN1CCN(Cn2c(NC(=O)OCC)nc3ccccc32)CC1
inactive: [8] 108 % of control | [9] 111 % of control | [10] 121 % of control | dose: 200.0 mg/kg/injection, schedule: Q01DX005 (ip), vehicle: saline 122 % of control

C=CC(C)(CCC=C(C)C)ON(C)C (centres undefined)
inactive: dose: 100.0 mg/kg/injection, schedule: Q04DX002 (ip), vehicle: saline with Tween-80 100 % of control

NCCCCC(C(=O)NCC(=O)O)N(C(=O)OCc1ccccc1)C(=O)OCc1ccccc1 (centres undefined)
inactive: [5] 101 % of control | [6] 101 % of control | [7] 90 % of control

O=S(=O)(O)c1cc2cc(S(=O)(=O)O)c3nnc4cc(S(=O)(=O)O)cc5cc(S(=O)(=O)O)c(nnc6cc(S(=O)(=O)O)cc7cc(S(=O)(=O)O)c(nnc(c1)c2c3O)c(O)c76)c(O)c54
inactive: [14] 93 % of control | [1] 106 % of control and 91 % of control

C/C(=C\C(=O)c1cccc(F)c1)N1CCN(c2ccc(F)cc2)CC1
inactive: [15] 100 % of control | [16] 96 % of control | dose: 200.0 mg/kg/injection, schedule: Q01DX005 (ip), vehicle: Klucel (hydroxypropylcellulose) (HPC) 100 % of control

CCOC(=O)[C](=[N+]=[N-])[Hg][C](=[N+]=[N-])C(=O)OCC
inactive: dose: 1.56 mg/kg/injection, schedule: Q04DX003 (ip), vehicle: saline 100 % of control | dose: 3.12 mg/kg/injection, schedule: Q04DX003 (ip), vehicle: saline 101 % of control | dose: 6.25 mg/kg/injection, schedule: Q04DX003 (ip), vehicle: saline 100 % of control

CC1CCCC(C)N1CC#CCNC(=O)C1CCC(=O)N1 (centres undefined)
inactive: dose: 25.0 mg/kg/injection, schedule: Q01DX005 (ip), vehicle: Klucel (hydroxypropylcellulose) (HPC) 100 % of control | [15] 102 % of control | [16] 121 % of control

CCOC(=O)C1=C(C(=O)c2ccc(OC)cc2)C(c2cccc([N+](=O)[O-])c2)C(C(=O)c2ccc(OC)cc2)=C(C(=O)OCC)N1
inactive: [14] 93 % of control | [1] 90 % of control and 96 % of control | [2] 94 % of control | [3] 90 % of control

Nc1nc(-c2cccc([N+](=O)[O-])c2)cc(-c2cc(-c3cccc([N+](=O)[O-])c3)nc(N)n2)n1
inactive: dose: 60.0 mg/kg/injection, schedule: Q01DX005 (ip), vehicle: Klucel (hydroxypropylcellulose) (HPC) 94 % of control | dose: 120.0 mg/kg/injection, schedule: Q01DX005 (ip), vehicle: Klucel (hydroxypropylcellulose) (HPC) 90 % of control | dose: 240.0 mg/kg/injection, schedule: Q01DX005 (ip), vehicle: Klucel (hydroxypropylcellulose) (HPC) 96 % of control

O=c1cc(O)c2ccc3ccccc3c2o1
inactive: [5] 89 % of control | [6] 87 % of control | [7] 92 % of control

O=C1Oc2ccccc2OC1c1ccccc1 (centres undefined)
inactive: [11] 102 % of control | [12] 106 % of control | [13] 97 % of control

Cc1ccc(N=C(N)NC#N)cc1
inactive: dose: 50.0 mg/kg/injection, schedule: Q01DX009 (ip), vehicle: saline with Tween-80 100 % of control | dose: 100.0 mg/kg/injection, schedule: Q01DX009 (ip), vehicle: saline with Tween-80 90 % of control | dose: 100.0 mg/kg/injection, schedule: Q04DX003 (ip), vehicle: saline with Tween-80 91 % of control | dose: 200.0 mg/kg/injection, schedule: Q01DX009 (ip), vehicle: saline with Tween-80 90 % of control | dose: 200.0 mg/kg/injection, schedule: Q04DX003 (ip), vehicle: saline with Tween-80 87 % of control

Reference: PubChem BioAssay AID330 (DTP/NCI, 2004)
